# Data from ChEMBL document CHEMBL3885861, “Open TG-GATES”.
# Organism: Rattus norvegicus
# Assay: Open TG-GATES - Regimen: Daily Repeat
# Format: toxicity, organism-based, Sprague-Dawley
# Design: regimen Daily Repeat, gender Male, age 6 weeks
# Conditions: in vivo, po, route gavage; for Bas / Eos / Fbg / Hb / MCH / MCHC / MCV / Mono / Neu / Plat / RBC / Ret / WBC / APTT / Ht / Lym / PT: tissue Blood; for KIDNEY_L / KIDNEY_R / KIDNEY_TOTAL: tissue Kidney; for LIVER: tissue Liver; for ALP / ALT / AST / BUN / CRE / Ca / DBIL / GLC / IP / K / LDH / Na / PL / RALB / TBIL / TC / TP / gamma-GTP / TG: tissue Plasma
# [1] = 0 mg/kg, 72 h, dose level Control, time 3 day
# [2] = 0 mg/kg, […], dose level Control, time 7 day
# [3] = 0 mg/kg, […], dose level Control, time 14 day
# [4] = 0 mg/kg, […], dose level Control, time 28 day
# [5] = 100 mg/kg, 72 h, dose level Low, time 3 day
# [6] = 100 mg/kg, […], dose level Low, time 7 day
# [7] = 100 mg/kg, […], dose level Low, time 14 day
# [8] = 100 mg/kg, […], dose level Low, time 28 day
structure (smiles),measurement,setting,value
O=C(O)c1cn(C2CC2)c2cc(N3CCNCC3)c(F)cc2c1=O [CIPROFLOXACIN],TERMINAL_BW,[1],198.1 g
same,Bas,[1],0%
same,Eos,[1],1.2%
same,Fbg,[1],228 mg/dL
same,Hb,[1],13.2 g/dL
same,MCH,[1],22.2 pg
same,MCHC,[1],33.5%
same,MCV,[1],66.2 fL
same,Mono,[1],7.6%
same,Neu,[1],12%
same,Plat,[1],99.9 x10_4/uL
same,RBC,[1],595 x10_4/ul
same,Ret,[1],8.5%
same,WBC,[1],105.1 x10_2/uL
same,KIDNEY_L,[1],0.9 g
same,KIDNEY_R,[1],0.9 g
same,KIDNEY_TOTAL,[1],1.8 g
same,LIVER,[1],9.9 g
same,ALP,[1],993.2 IU/L
same,ALT,[1],38.8 IU/L
same,AST,[1],66 IU/L
same,BUN,[1],17.2 mg/dL
same,CRE,[1],0.5 mg/dL
same,Ca,[1],11.4 mg/dL
same,DBIL,[1],0.002 mg/dL
same,GLC,[1],182 mg/dL
same,IP,[1],7.9 mg/dL
same,K,[1],5.1 meq/L
same,LDH,[1],88.4 IU/L
same,Na,[1],139.4 meq/L
same,PL,[1],157 mg/dL
same,RALB,[1],4 g/dL
same,TBIL,[1],0.3 mg/dL
same,TC,[1],84 mg/dL
same,TP,[1],5.9 g/dL
same,gamma-GTP,[1],1.8 IU/L
same,TERMINAL_BW,[2],237.8 g
same,TERMINAL_BW,[3],285 g
same,TERMINAL_BW,[4],358.5 g
same,APTT,[2],16.9 s
same,Bas,[2],0%
same,Eos,[2],0.8%
same,Fbg,[2],230.2 mg/dL
same,Hb,[2],12.6 g/dL
same,Ht,[2],39.6%
same,Lym,[2],82.2%
same,MCH,[2],20.8 pg
same,MCHC,[2],31.8%
same,MCV,[2],65.5 fL
same,Mono,[2],7%
same,Neu,[2],10%
same,PT,[2],11.9 s
same,Plat,[2],101.9 x10_4/uL
same,RBC,[2],605.2 x10_4/ul
same,Ret,[2],6.9%
same,WBC,[2],121.2 x10_2/uL
same,APTT,[3],16.4 s
same,Bas,[3],0%
same,Eos,[3],1%
same,Fbg,[3],250.2 mg/dL
same,Hb,[3],14 g/dL
same,Ht,[3],42.3%
same,MCH,[3],21 pg
same,MCHC,[3],33.1%
same,MCV,[3],63.3 fL
same,Mono,[3],4.4%
same,Neu,[3],11%
same,PT,[3],9.8 s
same,Plat,[3],111.2 x10_4/uL
same,RBC,[3],669.4 x10_4/ul
same,Ret,[3],5.7%
same,WBC,[3],131.2 x10_2/uL
same,APTT,[4],17.2 s
same,Bas,[4],0%
same,Eos,[4],1%
same,Fbg,[4],235.2 mg/dL
same,Hb,[4],14.8 g/dL
same,Ht,[4],44%
same,MCH,[4],19.4 pg
same,MCHC,[4],33.6%
same,MCV,[4],57.8 fL
same,Mono,[4],3.4%
same,Neu,[4],11%
same,PT,[4],11.3 s
same,Plat,[4],107.5 x10_4/uL
same,RBC,[4],762.2 x10_4/ul
same,Ret,[4],2.8%
same,WBC,[4],132.8 x10_2/uL
same,KIDNEY_L,[2],1.1 g
same,KIDNEY_R,[2],1.1 g
same,KIDNEY_TOTAL,[2],2.1 g
same,KIDNEY_L,[3],1.2 g
same,KIDNEY_R,[3],1.2 g
same,KIDNEY_TOTAL,[3],2.4 g
same,KIDNEY_L,[4],1.3 g
same,KIDNEY_R,[4],1.3 g
same,KIDNEY_TOTAL,[4],2.5 g
same,LIVER,[2],11.7 g
same,LIVER,[3],13.3 g
same,ALP,[2],938.8 IU/L
same,ALT,[2],31.6 IU/L
same,AST,[2],61.8 IU/L
same,BUN,[2],19.6 mg/dL
same,CRE,[2],0.5 mg/dL
same,Ca,[2],11.3 mg/dL
same,DBIL,[2],0.01 mg/dL
same,GLC,[2],186.8 mg/dL
same,IP,[2],8.6 mg/dL
same,K,[2],5 meq/L
same,LDH,[2],67 IU/L
same,Na,[2],140.6 meq/L
same,PL,[2],158.4 mg/dL
same,RALB,[2],3.9 g/dL
same,TBIL,[2],0.3 mg/dL
same,TC,[2],90.2 mg/dL
same,TG,[2],93.6 mg/dL
same,TP,[2],5.7 g/dL
same,gamma-GTP,[2],1.2 IU/L
same,ALP,[3],844.4 IU/L
same,ALT,[3],31.4 IU/L
same,AST,[3],58.4 IU/L
same,BUN,[3],18.8 mg/dL
same,CRE,[3],0.6 mg/dL
same,DBIL,[3],0.006 mg/dL
same,GLC,[3],185.6 mg/dL
same,IP,[3],7.9 mg/dL
same,K,[3],4.7 meq/L
same,LDH,[3],80.6 IU/L
same,Na,[3],138.8 meq/L
same,PL,[3],172.8 mg/dL
same,RALB,[3],4.1 g/dL
same,TBIL,[3],0.2 mg/dL
same,TC,[3],82.2 mg/dL
same,TG,[3],150.6 mg/dL
same,TP,[3],6.3 g/dL
same,gamma-GTP,[3],1.2 IU/L
same,ALP,[4],566.6 IU/L
same,ALT,[4],28.8 IU/L
same,AST,[4],57.6 IU/L
same,BUN,[4],18.8 mg/dL
same,CRE,[4],0.4 mg/dL
same,Ca,[4],10.7 mg/dL
same,DBIL,[4],0.048 mg/dL
same,GLC,[4],195.6 mg/dL
same,IP,[4],7 mg/dL
same,K,[4],4.3 meq/L
same,LDH,[4],94.4 IU/L
same,Na,[4],140.2 meq/L
same,PL,[4],150.6 mg/dL
same,RALB,[4],4.1 g/dL
same,TBIL,[4],0.3 mg/dL
same,TC,[4],75.4 mg/dL
same,TG,[4],126.4 mg/dL
same,TP,[4],6.6 g/dL
same,gamma-GTP,[4],1.4 IU/L
same,TERMINAL_BW,[5],197.9 g
same,APTT,[5],16.8 s
same,Bas,[5],0%
same,Eos,[5],1%
same,Fbg,[5],236.3 mg/dL
same,Hb,[5],13.2 g/dL
same,Ht,[5],39.6%
same,MCV,[5],63.9 fL
same,Mono,[5],6.2%
same,Neu,[5],13%
same,Plat,[5],90 x10_4/uL
same,RBC,[5],621.4 x10_4/ul
same,Ret,[5],6.4%
same,WBC,[5],94.6 x10_2/uL
same,KIDNEY_L,[5],0.9 g
same,KIDNEY_R,[5],0.9 g
same,KIDNEY_TOTAL,[5],1.8 g
same,LIVER,[5],8.9 g
same,ALP,[5],806.8 IU/L
same,ALT,[5],44.4 IU/L
same,AST,[5],64 IU/L
same,CRE,[5],0.5 mg/dL
same,DBIL,[5],0.012 mg/dL
same,GLC,[5],182 mg/dL
same,IP,[5],8.4 mg/dL
same,K,[5],5.3 meq/L
same,LDH,[5],83.2 IU/L
same,Na,[5],139 meq/L
same,PL,[5],140.6 mg/dL
same,RALB,[5],3.8 g/dL
same,TBIL,[5],0.3 mg/dL
same,TC,[5],78.6 mg/dL
same,TG,[5],76.6 mg/dL
same,TP,[5],5.6 g/dL
same,gamma-GTP,[5],1.6 IU/L
same,TERMINAL_BW,[6],227.7 g
same,TERMINAL_BW,[7],280.3 g
same,TERMINAL_BW,[8],387.5 g
same,Bas,[6],0%
same,Eos,[6],0.8%
same,Fbg,[6],221.6 mg/dL
same,Hb,[6],12.9 g/dL
same,Ht,[6],38.6%
same,Lym,[6],80%
same,MCH,[6],21.2 pg
same,MCV,[6],63.8 fL
same,Mono,[6],5.8%
same,Neu,[6],13.8%
same,Plat,[6],94 x10_4/uL
same,RBC,[6],605.6 x10_4/ul
same,Ret,[6],6.4%
same,WBC,[6],126.8 x10_2/uL
same,APTT,[7],16.3 s
same,Bas,[7],0%
same,Eos,[7],0.8%
same,Fbg,[7],243.6 mg/dL
same,Hb,[7],14 g/dL
same,Ht,[7],41.8%
same,Lym,[7],85.8%
same,MCHC,[7],33.4%
same,MCV,[7],61.8 fL
same,Mono,[7],5.4%
same,Neu,[7],8.2%
same,PT,[7],10.2 s
same,Plat,[7],102.2 x10_4/uL
same,RBC,[7],678.2 x10_4/ul
same,Ret,[7],6.3%
same,WBC,[7],155.4 x10_2/uL
same,APTT,[8],17.3 s
same,Bas,[8],0%
same,Eos,[8],1%
same,Fbg,[8],233.2 mg/dL
same,Hb,[8],14.7 g/dL
same,Ht,[8],44.2%
same,Lym,[8],85.2%
same,MCH,[8],19.8 pg
same,MCHC,[8],33.4%
same,MCV,[8],59.3 fL
same,Mono,[8],4.4%
same,Neu,[8],9.4%
same,PT,[8],11.4 s
same,Plat,[8],105.1 x10_4/uL
same,RBC,[8],746.2 x10_4/ul
same,Ret,[8],3%
same,WBC,[8],131.4 x10_2/uL
same,KIDNEY_L,[6],1 g
same,KIDNEY_R,[6],1 g
same,KIDNEY_TOTAL,[6],2.1 g
same,KIDNEY_L,[7],1.1 g
same,KIDNEY_R,[7],1.1 g
same,KIDNEY_TOTAL,[7],2.3 g
same,KIDNEY_L,[8],1.4 g
same,KIDNEY_R,[8],1.4 g
same,KIDNEY_TOTAL,[8],2.8 g
same,LIVER,[6],10.7 g
same,LIVER,[8],15.3 g
same,ALP,[6],932.4 IU/L
same,ALT,[6],37.2 IU/L
same,AST,[6],65.8 IU/L
same,BUN,[6],18.2 mg/dL
same,CRE,[6],0.5 mg/dL
same,Ca,[6],11.4 mg/dL
same,DBIL,[6],0 mg/dL
same,GLC,[6],184 mg/dL
same,IP,[6],8.4 mg/dL
same,K,[6],4.9 meq/L
same,LDH,[6],56 IU/L
same,Na,[6],139.8 meq/L
same,PL,[6],149.8 mg/dL
same,RALB,[6],3.9 g/dL
same,TBIL,[6],0.3 mg/dL
same,TG,[6],74.8 mg/dL
same,TP,[6],5.8 g/dL
same,gamma-GTP,[6],1.6 IU/L
same,ALP,[7],887.8 IU/L
same,ALT,[7],33 IU/L
same,AST,[7],66.4 IU/L
same,BUN,[7],21.2 mg/dL
same,CRE,[7],0.5 mg/dL
same,Ca,[7],10.9 mg/dL
same,DBIL,[7],0.022 mg/dL
same,GLC,[7],195.6 mg/dL
same,IP,[7],8.4 mg/dL
same,K,[7],4.9 meq/L
same,LDH,[7],88 IU/L
same,Na,[7],139.2 meq/L
same,PL,[7],175 mg/dL
same,RALB,[7],4 g/dL
same,TBIL,[7],0.3 mg/dL
same,TC,[7],89 mg/dL
same,TG,[7],128 mg/dL
same,TP,[7],6.1 g/dL
same,gamma-GTP,[7],2.2 IU/L
same,ALP,[8],630 IU/L
same,ALT,[8],29 IU/L
same,AST,[8],54.2 IU/L
same,BUN,[8],17.8 mg/dL
same,CRE,[8],0.4 mg/dL
same,Ca,[8],11 mg/dL
same,DBIL,[8],0.024 mg/dL
same,GLC,[8],185.4 mg/dL
same,IP,[8],7.5 mg/dL
same,K,[8],4.6 meq/L
same,LDH,[8],75.6 IU/L
same,Na,[8],140 meq/L
same,PL,[8],141.6 mg/dL
same,RALB,[8],4 g/dL
same,TBIL,[8],0.3 mg/dL
same,TC,[8],72.8 mg/dL
same,TG,[8],108.8 mg/dL
same,TP,[8],6.4 g/dL
same,gamma-GTP,[8],1.4 IU/L
same,TERMINAL_BW,"300 mg/kg, 72 h, dose level Middle, time 3 day",198.3 g
